According to the NIST ThermoML archive (doi:10.1021/je200757a):
± gives the expanded uncertainty stated by the source.

How the values were obtained:
[1] = for viscosity / mass density: 101 kPa, Liquid; for viscosity: Capillary tube (Ostwald / Ubbelohde) method; for mass density: Vibrating tube method
[2] = refractive index (Na D-line) (dimensionless); settings: 101.33 kPa, Liquid
[3] = xn = mol fraction of the nth substance listed; settings: x1 = 1; for viscosity / mass density: 101 kPa, Liquid; for viscosity: Capillary tube (Ostwald / Ubbelohde) method; for mass density: Vibrating tube method
[4] = refractive index (Na D-line) (dimensionless); xn = mol fraction of the nth substance listed; settings: 101 kPa, Liquid, x1 = 1

| SMILES | viscosity ([1]; 293.15 K) [mPa·s] | mass density ([1]; 293.15 K) [kg/m3] | viscosity ([1]; 298.15 K) [mPa·s] | mass density ([1]; 298.15 K) [kg/m3] | viscosity ([1]; 303.15 K) [mPa·s] | mass density ([1]; 303.15 K) [kg/m3] | viscosity ([1]; 313.15 K) [mPa·s] | mass density ([1]; 313.15 K) [kg/m3] | refractive index ([2]; 293.15 K) | refractive index ([2]; 303.15 K) | viscosity ([3]; 293.15 K) [mPa·s] | mass density ([3]; 293.15 K) [kg/m3] | viscosity ([3]; 298.15 K) [mPa·s] | mass density ([3]; 298.15 K) [kg/m3] | viscosity ([3]; 303.15 K) [mPa·s] | mass density ([3]; 303.15 K) [kg/m3] | viscosity ([3]; 313.15 K) [mPa·s] | mass density ([3]; 313.15 K) [kg/m3] | refractive index ([4]; 293.15 K) | refractive index ([4]; 303.15 K) | further results |
| --- | --- | --- | --- | --- | --- | --- | --- | --- | --- | --- | --- | --- | --- | --- | --- | --- | --- | --- | --- | --- | --- |
| CCCCCCCCCCCC [dodecane] | 1.507 ± 0.012 | 748.6 ± 0.2 | 1.377 ± 0.011 | 745 ± 0.2 | 1.266 ± 0.01 | 741.4 ± 0.2 | 1.084 ± 0.009 | 734.1 ± 0.2 | 1.4219 ± 0.0013 | 1.4168 ± 0.0013 | – | – | – | – | – | – | – | – | – | – | surface tension liquid-gas ([1]; 293.15 K): 24.07 ± 0.34 mN/m; surface tension liquid-gas ([1]; 303.15 K): 23.67 ± 0.34 mN/m |
| CCCCCCCCCCCC [dodecane] + C1C[C@@H]2[C@H]3CC[C@H](C3)[C@@H]2C1 | – | – | – | – | – | – | – | – | – | – | 1.507 ± 0.012 | 748.6 ± 0.2 | 1.377 ± 0.011 | 745 ± 0.2 | 1.266 ± 0.01 | 741.4 ± 0.2 | 1.084 ± 0.009 | 734.1 ± 0.2 | 1.4219 ± 0.0013 | 1.4168 ± 0.0013 | surface tension liquid-gas ([3]; 293.15 K): 24.07 ± 0.34 mN/m; surface tension liquid-gas ([3]; 303.15 K): 23.67 ± 0.34 mN/m |
| C1C[C@@H]2[C@H]3CC[C@H](C3)[C@@H]2C1 [exo-tetrahydrodicyclopentadiene] | 3.077 ± 0.035 | 935.3 ± 0.8 | 2.784 ± 0.032 | 931.4 ± 0.8 | 2.525 ± 0.029 | 927.5 ± 0.8 | 2.112 ± 0.024 | 919.6 ± 0.7 | 1.4877 ± 0.0013 | 1.4832 ± 0.0013 | – | – | – | – | – | – | – | – | – | – | surface tension liquid-gas ([1]; 293.15 K, Capillary rise): 31.86 ± 0.38 mN/m; surface tension liquid-gas ([1]; 303.15 K, Capillary rise): 31.09 ± 0.38 mN/m |
| CCCCCCCCC [nonane] | 0.733 ± 0.006 | 717.8 ± 0.3 | 0.687 ± 0.006 | 713.9 ± 0.3 | 0.647 ± 0.005 | 710 ± 0.3 | 0.579 ± 0.005 | 702.1 ± 0.3 | 1.4048 ± 0.0013 | 1.4001 ± 0.0013 | – | – | – | – | – | – | – | – | – | – | surface tension liquid-gas ([1]; 293.15 K, Capillary rise): 22.2 ± 0.24 mN/m; surface tension liquid-gas ([1]; 303.15 K, Capillary rise): 21.41 ± 0.23 mN/m |
| CCCCCCCCC [nonane] + C1C[C@@H]2[C@H]3CC[C@H](C3)[C@@H]2C1 | – | – | – | – | – | – | – | – | – | – | 0.733 ± 0.006 | 717.8 ± 0.3 | 0.687 ± 0.006 | 713.9 ± 0.3 | 0.647 ± 0.005 | 710 ± 0.3 | 0.579 ± 0.005 | 702.1 ± 0.3 | 1.4048 ± 0.0013 | 1.4001 ± 0.0013 | surface tension liquid-gas ([3]; 293.15 K, Capillary rise): 22.2 ± 0.24 mN/m; surface tension liquid-gas ([3]; 303.15 K, Capillary rise): 21.41 ± 0.23 mN/m |
| CCCCCCCCCCCCC [tridecane] | 1.894 ± 0.014 | 756.5 ± 0.2 | 1.726 ± 0.013 | 752.9 ± 0.2 | 1.577 ± 0.012 | 749.3 ± 0.2 | 1.325 ± 0.01 | 742.2 ± 0.2 | 1.4253 ± 0.0013 | 1.4213 ± 0.0013 | – | – | – | – | – | – | – | – | – | – | surface tension liquid-gas ([1]; 293.15 K): 24.79 ± 0.34 mN/m; surface tension liquid-gas ([1]; 303.15 K): 24.08 ± 0.34 mN/m |
| CCCCCCCCCCCCC [tridecane] + C1C[C@@H]2[C@H]3CC[C@H](C3)[C@@H]2C1 | – | – | – | – | – | – | – | – | – | – | 1.894 ± 0.014 | 756.5 ± 0.2 | 1.726 ± 0.013 | 752.9 ± 0.2 | 1.577 ± 0.012 | 749.3 ± 0.2 | 1.325 ± 0.01 | 742.2 ± 0.2 | 1.4253 ± 0.0013 | 1.4213 ± 0.0013 | surface tension liquid-gas ([3]; 293.15 K): 24.79 ± 0.34 mN/m; surface tension liquid-gas ([3]; 303.15 K): 24.08 ± 0.34 mN/m |
